Source: paper PMC9250534, “Synthesis and direct assay of large macrocycle diversities by combinatorial late-stage modification at picomole scale” (Nature Communications, 2022)
Numbered stars: 1 amine (or outer) side, 2 acyl side, 3 side chain; on linkers, the order of the positions; unused ones are H or OH. Bridge positions count the residues as written; N and C are the ends. Square brackets hold non-standard residues; d marks the D form. Peptide text beside a SMILES is read from it. * marks the point of attachment. ξ: configuration not given here. Pro(4S-NHCO(5-Cl-2-thienyl)) = O=C(N[C@@H]1CN[C@H](C(=O)O)C1)c1ccc(Cl)s1; ξPro(4-NHCO(5-Cl-2-thienyl)) = O=C(NC1CNC(C(=O)O)C1)c1ccc(Cl)s1; Isoorotoyl = O=C(c1c[nH]c(=O)[nH]c1=O)*; 2Thenoyl(5-Cl) = O=C(c1ccc(Cl)s1)*; Phenoxyacetyl = O=C(COc1ccccc1)*; Cysteamide = C(CS[*:3])N[*:1]; Api = NC1(C(=O)O)CCNCC1; Orn = NCCC[CH](N)C(=O)O; Dap = NC[C@H](N)C(=O)O; Bz = O=C(c1ccccc1)*; Mpa = O=C(O)CCS

Target: T1, thrombin (Homo sapiens, UniProt P00734)
T1 construct: consists of two polypeptide chains of 36 (light chain) and 259 amino acid
Assay: Thrombin inhibition screen of crude macrocycle reactions (residual thrombin activity, fluorogenic substrate Z-Gly-Gly-Arg-AMC)
Type: biochemical
Settings: 10 µM macrocycle concentration; for percent residual thrombin activity: crude reactions, Library 1a-l, scaffold AA1-AA2-AA3 combined with 1-16 or '-'; for % thrombin activity, Original screen / % thrombin activity, Repeat screen: macrocycles containing acid 14, crude reaction; for % thrombin activity, Repeat screen: replicate reaction and screen
Outline: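 Residual activity was measured as the AMC release rate after adding 50 μM Z-Gly-Gly-Arg-AMC. This followed a 10-min room-temperature preincubation of 2 nM thrombin with 10 μM single macrocycles in pH 7.4 Tris buffer (0.6% DMSO). Percent inhibition was taken against the mean slope of DMSO controls.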

| SMILES | percent residual thrombin activity | % thrombin activity, Original screen | % thrombin activity, Repeat screen | % thrombin activity, Original screen (listed as X B2 D3 s) | % thrombin activity, Repeat screen (listed as X B2 D3 s) |
| --- | --- | --- | --- | --- | --- |
| O=C1CCSSCCNC(=O)[C@@H]2CCCN2C(=O)[C@H](CCCCNC(=O)c2c[nH]c(=O)[nH]c2=O)NC(=O)[C@H](Cc2c[nH]c3ccccc23)N1 [W-D1-B1/11] ([Mpa]WK(Isoorotoyl)P-Cysteamide; disulfide 1-C) | 99.1805% |  |  |  |  |
| O=C(COc1ccccc1)NCCCC[C@@H]1NC(=O)[C@H](Cc2c[nH]c3ccccc23)NC(=O)CCSSCCNC(=O)[C@@H]2CCCN2C1=O [W-D1-B1/13] ([Mpa]WK(Phenoxyacetyl)P-Cysteamide; disulfide 1-C) | 96.359% |  |  |  |  |
| O=C(NC[C@@H]1NC(=O)[C@@H]2CCCN2C(=O)CCSSCCNC(=O)[C@@H](Cc2ccccc2)NC1=O)c1ccc(Cl)s1 [X B1 D3 f] ([Mpa]P[Dap](2Thenoyl(5-Cl))[dF]-Cysteamide; disulfide 1-C) |  | 86.2% | 88.2% |  |  |
| NC(=O)CC[C@@H]1NC(=O)C2(CCN(C(=O)c3ccc(Cl)s3)CC2)NC(=O)[C@@H]2CCCN2C(=O)CCSSCCNC1=O [X B1 D6 Q] ([Mpa]P[Api](2Thenoyl(5-Cl))Q-Cysteamide; disulfide 1-C) |  | 91.7% | 93.5% |  |  |
| CC(C)CC1NC(=O)C2CCCN2C(=O)CCSSCCNC(=O)C2CC(NC(=O)c3ccc(Cl)s3)CN2C1=O (centres unmarked) [X B1 L D5] ([Mpa]PL[ξPro(4-NHCO(5-Cl-2-thienyl))]-Cysteamide; disulfide 1-C; configuration not given here) |  | 94.2% | 99.9% |  |  |
| O=C1NC2(CCN(C(=O)c3ccc(Cl)s3)CC2)C(=O)NCCSSCCC(=O)N2CCCC2C(=O)NC1Cc1c[nH]c2ccccc12 (centres unmarked) [X B1 w D6] ([Mpa]PW[Api](2Thenoyl(5-Cl))-Cysteamide; disulfide 1-C; configuration not given here) |  | 94.1% | 97.2% |  |  |
| O=C1CCSSCCNC(=O)[C@@H](Cc2c[nH]c3ccccc23)NC(=O)[C@@H](CNC(=O)c2ccc(Cl)s2)NC(=O)CCN1 [X B2 D4 w] |  | 88.8% | 91.0% |  |  |
| O=C1CCSSCCNC(=O)C(Cc2c[nH]c3ccccc23)NC(=O)C2CC(NC(=O)c3ccc(Cl)s3)CN2C(=O)CCN1 (centres unmarked) [X B2 D5 w] |  | 95.8% | 101.8% |  |  |
| O=C1CCSSCCNC(=O)C2(CCN(C(=O)c3ccc(Cl)s3)CC2)NC(=O)[C@H](Cc2c[nH]cn2)NC(=O)CCN1 [X B2 H D6] |  | 96.8% | 101.7% |  |  |
| O=C1CCSSCCNC(=O)[C@@H](CNC(=O)c2ccc(Cl)s2)NC(=O)[C@H](Cc2c[nH]c3ccccc23)NC(=O)CCN1 [X B2 W D4] |  | 61.5% | 68.8% |  |  |
| O=C1CCSSCCNC(=O)C(CNC(=O)c2ccc(Cl)s2)NC(=O)C(Cc2ccccc2)NC(=O)c2ccc(cc2)CN1 (centres unmarked) [X B3 F D3] |  | 62.7% | 59.9% |  |  |
| CC(C)[C@@H]1NC(=O)c2ccc(cc2)CNC(=O)CCSSCCNC(=O)[C@H](CCCCNC(=O)c2ccc(Cl)s2)NC1=O [X B3 V D1] |  | 102.1% | 107.7% |  |  |

Second part, the compound after the results:

| percent residual thrombin activity | % thrombin activity, Original screen | % thrombin activity, Repeat screen | % thrombin activity, Original screen (listed as X B2 D3 s) | % thrombin activity, Repeat screen (listed as X B2 D3 s) | SMILES |
| --- | --- | --- | --- | --- | --- |
| 81.7178% |  |  |  |  | O=C1CCSSCCNC(=O)[C@H](CCCCNC(=O)c2ccc(Cl)s2)NC(=O)C2(CC2)CNC(=O)[C@H](Cc2c[nH]c3ccccc23)N1 [W-B6-D1/14] |
| 87.3276% |  |  |  |  | NCCCC[C@@H]1NC(=O)C2(CC2)CNC(=O)[C@H](Cc2c[nH]c3ccccc23)NC(=O)CCSSCCNC1=O [W-B6-D1/-] |
| 101.199% |  |  |  |  | O=C1CCSSCCNC(=O)[C@@H]2CCCN2C(=O)[C@H](CCCCNC(=O)c2ccccc2)NC(=O)[C@H](Cc2c[nH]c3ccccc23)N1 [W-D1-B1/1] ([Mpa]WK(Bz)P-Cysteamide; disulfide 1-C) |
|  | 108.1% | 109.9% |  |  | CC(C)[C@H]1NC(=O)[C@H](CCCCNC(=O)c2ccc(Cl)s2)NC(=O)[C@@H]2CCCN2C(=O)CCSSCCNC1=O [X B1 D1 v] ([Mpa]PK(2Thenoyl(5-Cl))[dV]-Cysteamide; disulfide 1-C) |
|  | 103.7% | 108.0% |  |  | O=C(NCCCC[C@@H]1NC(=O)[C@@H]2CCCN2C(=O)CCSSCCNC(=O)[C@@H](Cc2ccc(O)cc2)NC1=O)c1ccc(Cl)s1 [X B1 D1 y] ([Mpa]PK(2Thenoyl(5-Cl))[dY]-Cysteamide; disulfide 1-C) |
|  | 96.1% | 98.4% |  |  | NC(=O)CC[C@@H]1NC(=O)[C@@H]2C[C@H](NC(=O)c3ccc(Cl)s3)CN2C(=O)[C@@H]2CCCN2C(=O)CCSSCCNC1=O [X B1 D5 Q] ([Mpa]P[Pro(4S-NHCO(5-Cl-2-thienyl))]Q-Cysteamide; disulfide 1-C) |
|  | 90.0% | 94.0% |  |  | O=C1NCCSSCCC(=O)N2CCC[C@H]2C(=O)NC2(CCN(C(=O)c3ccc(Cl)s3)CC2)C(=O)N[C@H]1Cc1c[nH]cn1 [X B1 D6 H] ([Mpa]P[Api](2Thenoyl(5-Cl))H-Cysteamide; disulfide 1-C) |
|  | 92.6% | 89.5% |  |  | NC(=O)CCC1NC(=O)C2CCCN2C(=O)CCSSCCNC(=O)C(CCCNC(=O)c2ccc(Cl)s2)NC1=O (centres unmarked) [X B1 Q D2] ([Mpa]PQ[Orn](2Thenoyl(5-Cl))-Cysteamide; disulfide 1-C; configuration not given here) |
|  | 83.8% | 76.6% | 102.4% | 99.4% | O=C1CCSSCCNC(=O)[C@H](CO)NC(=O)[C@H](CNC(=O)c2ccc(Cl)s2)NC(=O)CCN1 [X B2 D3 S] |
|  | 34.0% | 33.5% |  |  | O=C1CCSSCCNC(=O)[C@H](CNC(=O)c2ccc(Cl)s2)NC(=O)[C@H](Cc2ccccc2)NC(=O)CCN1 [X B2 F D3] |
|  | 96.5% | 92.7% |  |  | C[C@H]1NC(=O)CCNC(=O)CCSSCCNC(=O)C2(CCN(C(=O)c3ccc(Cl)s3)CC2)NC1=O [X B2 a D6] |
|  | 91.1% | 96.6% |  |  | O=C1CCSSCCNC(=O)C(Cc2ccccc2)NC(=O)C(CNC(=O)c2ccc(Cl)s2)NC(=O)c2ccc(cc2)CN1 (centres unmarked) [X B3 D3 f] |
|  | 91.2% | 94.4% |  |  | CC(C)C[C@@H]1NC(=O)c2ccc(cc2)CNC(=O)CCSSCCNC(=O)C2(CCN(C(=O)c3ccc(Cl)s3)CC2)NC1=O [X B3 L D6] |
|  | 106.6% | 108.9% |  |  | O=C1CCSSCCNC(=O)[C@H](CCCCNC(=O)c2ccc(Cl)s2)NC(=O)[C@@H](Cc2ccc(O)cc2)NC(=O)c2ccc(cc2)CN1 [X B3 y D1] |
|  | 88.0% | 89.2% |  |  | O=C1CCSSCCNC(=O)[C@H](CNC(=O)c2ccc(Cl)s2)NC(=O)[C@@H](Cc2ccc(O)cc2)NC(=O)c2ccc(cc2)CN1 [X B3 y D3] |
|  | 96.9% | 99.9% |  |  | O=C(NCCCCC1NC(=O)C2CCCN(C2)C(=O)CCSSCCNC(=O)C(CO)NC1=O)c1ccc(Cl)s1 (centres unmarked) [X B4 D1 S] |
